According to patent US20020025296A1, “Combined use of nucleoside analogues and gene transfection for tissue imaging and therapy” (priority 1994, published 2002):

What was measured:
[1] = Partition coefficients (log P), n-octanol/water, modified shake-flask technique with UV quantitation; format: physicochemical; details: n-octanol and water (1:1, v/v)
Protocol: Partition coefficients (log P) were measured by determining the distribution of the test compound between a presaturated mixture of n-octanol and water (1:1, v/v). The analytical method consisted of a modified shake-flask technique and ultraviolet (UV) spectrometry quantitation after centrifugal separation of the two phases. The concentration of the test compound in the octanol phase prior to distribution was 0.5 mM. The dihydropyridine chromophore (λmax=360 nm) was used for quantitative UV analysis of IVDU-CDS and IVFRU-CDS, for which the results are shown in Table 1.

[2] = Stability of the preferred compounds; details: comparison among preferred compounds
[3] = Pseudo-first order oxidation of the 1-methyl-1,4-dihydropyridine-CDS in mouse blood, brain homogenate and liver homogenate; format: in vitro ADME; details: 37° C.; for k, oxidation rate, brain / t1/2, oxidation, brain: 20% mouse brain homogenate; for k, oxidation rate, blood / t1/2, oxidation, blood: 50% mouse blood
Protocol: Pseudo-first order rate constants and half-lives for the oxidation of IVDU-CDS and IVFRU-CDS were determined in 50% mouse blood, 20% mouse brain homogenate and 20% mouse liver homogenate. A solution of the test compound in DMSO (10 Mm) was added to each matrix and incubated at 37° C. At various times after test compound addition, an aliquot was removed and added to acetonitrile (100 μL). The samples were immediately centrifuged and the supernatant was analyzed by quantitative reverse phase HPLC. The rate of disappearance of the 1-methyl-1,4-dihydropyridine-CDS was determined by UV detection at 360 nm.

[4] = system: KBALB-STK cells that express HSV-1 TK; experiment: In vitro cellular uptake of radiopharmaceuticals in transduced or non-transduced sarcoma cell lines; format: cell-based; details: KBALB-STK cells relative to KBALB or KBALB-LNL cells, 37° C.
Protocol: The KBALB sarcoma models used in these studies are derived by exposing wild-type KBALB cells to Moloney murine leukemia virus (MMLV) producer cell supernatants containing replication incompetent ecotropic retroviruses. […] These transduced cell lines are cultured in media containing the antibiotic G-418 to select for those cells expressing the neomycin resistance gene.
KBALB-STK, KBALB-LNL, or wild type KBALB cells were grown to confluency in 24 well culture plates. [^125I]-IVDU (sp. act.=12 Gbq/mmol), [^125I]-1VFRU (sp. act.=11 Gbq/mmol), [^131′I]-IVDU-CDS (sp. act.=2.8 Gbq/mmol) or [^131I]-IVFRU-CDS (sp. act.=4.3 Gbq/mmol) were added to each well in 100 μL saline solution and incubated at 37° C. At varying times after exposure to the test compound, the supernatant was removed, the cells rinsed with saline, and the adherent cells were then trypsinized prior to their removal. Cellular uptake -was determined by gamma counting using a Beckmann 8000 gamma counter.

[5] = system: KBALB-STK tumors expressing HSV-1 TK; experiment: Scintigraphic imaging of KBALB-STK tumors; format: in vivo, mice; details: 8 hours after administration
Protocol: (§1) BALB-STK cells (1×10^5 cells) were injected subcutaneously into the flank of 12 Balb-c mice. All inoculated animals developed palpable tumors suitable for imaging after 14 days at which time the tumors were approximately 10 mm in diameter. Static images were obtained following injection of 3.7 Mbq of [^131I]-VFRU (sp. act.=252 Gbq/mmol) via the tail vein. Animals were placed in the prone position under a pinhole collimator using a Searle gamma camera (Scintiview) with data manipulated on an ADAC computer (DPS 3300). Images were acquired over 15 minutes using a 256×256 matrix. After initial imaging, a group of animals (n=6) were administered an intraparietoneal (ip) injection of ganciclovir (100 mg/kg) once daily for seven consecutive days. The control group (n=6) received daily saline injections. After four days, the animals were administered [^131I]-IVFRU as described previously and imaging was performed using the same acquisition protocol described above. It was noted that the treatment group tumor size had shrunk to an average size of less than 5 mm. […] The tumors in the saline administered control animals continued to grow until termination of the experiment. […] The scintigram, presented as FIG. 7, is for the same animal 8 hours after [^131I]-IVFRU administration following 4 days of ganciclovir treatment.

[6] = system: KBALB tumors; experiment: Biodistribution in mice bearing wild type KBALB tumors; format: in vivo; details: relative to KBALB-STK tumors
Protocol: (§2) KBALB or KBALB-STK cells (1×10^5 cells) were injected subcutaneously into the flank of male Balb-c mice. Palpable tumors appeared 14 days after injection. [^131I]-IVFRU (370 KBq, sp. act. 59 Gbq/mmol) was injected via the tail vein into each tumor bearing animal. Three animals were sacrificed and dissected at each time interval. The radioactivity uptake by selected tissues of interest were determined using a Beckman 8000 gamma counter. Tissue uptake is expressed as a percentage of the administered dose per gram of tissue versus time in FIGS. 3 and 4. The tumor to blood ratio is presented for both tumor models in FIG. 5.

[7] = system: KBALB-STK tumors; experiment: Biodistribution in mice bearing KBALB-STK tumors; format: in vivo
Protocol: as §2

[8] = target: HSV-1 TK (Human herpesvirus 1, UniProt P0DTH5); experiment: Substrate property for the gene expression product HSV-1 TK; format: biochemical, herpes simplex virus type 1
[9] = system: KBALB-STK tumors; experiment: Ganciclovir treatment of mice bearing KBALB-STK tumors; format: in vivo; details: 100 mg/kg ip once daily
Protocol: as §1

Chain of HSV-1 TK (P0DTH5 whole entry): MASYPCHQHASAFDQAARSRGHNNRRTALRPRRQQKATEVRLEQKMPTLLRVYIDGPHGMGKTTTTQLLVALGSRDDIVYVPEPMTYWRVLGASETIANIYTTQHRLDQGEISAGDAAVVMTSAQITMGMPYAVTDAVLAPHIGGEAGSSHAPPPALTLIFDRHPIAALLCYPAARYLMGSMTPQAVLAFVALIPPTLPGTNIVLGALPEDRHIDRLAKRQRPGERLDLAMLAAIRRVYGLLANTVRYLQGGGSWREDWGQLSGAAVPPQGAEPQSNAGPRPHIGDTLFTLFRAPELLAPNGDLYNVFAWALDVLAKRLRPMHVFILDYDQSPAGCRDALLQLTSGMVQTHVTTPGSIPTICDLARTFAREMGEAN

Q: For `O=c1[nH]c(=O)n([C@H]2C[C@H](O)[C@@H](CO)O2)cc1/C=C/I` [IVDU, (E)-5-(2-iodovinyl)-2′-deoxyuridine], which logP [1] is on record?
A: 1.1

Q: What about the stability [2] of the same molecule?
A: less stable than IVFRU, IVFAU and IVAU

Q: For `CN1C=CCC(C(=O)O[C@H]2C[C@H](n3cc(/C=C/I)c(=O)[nH]c3=O)O[C@@H]2CO)=C1` [IVDU-CDS, (E)-5-(2-iodovinyl)-3′-O-(1-methyl-1,4-dihydropyridyl-3-carbonyl)-2′-deoxyuridine], which “k, oxidation rate, brain” value [3] is on record?
A: 0.00961 min⁻¹

Q: And the “t1/2, oxidation, brain” value [3]?
A: 1.2 h

Q: And the “k, oxidation rate, liver” value ([3]; 20% mouse liver homogenate)?
A: 0.01081 min⁻¹

Q: What about the “k, oxidation rate, blood” value [3] of the same molecule?
A: 0.00522 min⁻¹

Q: What about the “t1/2, oxidation, blood” value [3] of the same molecule?
A: 2.22 h

Q: And the “log P” value [1]?
A: 1.77

Q: And the stability [2]?
A: more stable

Q: With `O=c1[nH]c(=O)n([C@@H]2O[C@H](CO)[C@@H](O)[C@H]2F)cc1/C=C/I` [IVFRU, (E)-5-(2-iodovinyl)-2′-fluoro-2′-deoxyuridine] as the molecule, how does the logP [1] read?
A: 1.21

Q: For `CN1C=CCC(C(=O)O[C@H]2[C@@H](F)[C@H](n3cc(/C=C/I)c(=O)[nH]c3=O)O[C@@H]2CO)=C1` [IVFRU-CDS, (E)-5-(2-iodovinyl)-3′-O-(1-methyl-1,4-dihydropyridyl-3-carbonyl)-2′-fluoro-2′-deoxyuridine], which “k, oxidation rate, brain” value [3] is on record?
A: 0.0031 min⁻¹

Q: And the “t1/2, oxidation, brain” value [3]?
A: 3.72 h

Q: What about the “k, oxidation rate, liver” value ([3]; 20% mouse liver homogenate) of the same molecule?
A: 0.00531 min⁻¹

Q: What about the “t1/2, oxidation, liver” value ([3]; 20% mouse liver homogenate) of the same molecule?
A: 2.17 h

Q: And the “k, oxidation rate, blood” value [3]?
A: 0.0027 min⁻¹

Q: What about the “t1/2, oxidation, blood” value [3] of the same molecule?
A: 4.27 h

Q: What about the “log P” value [1] of the same molecule?
A: 1.83

Q: For `O=c1[nH]c(=O)n([C@@H]2O[C@H](CO)[C@@H](O)[C@@H]2F)cc1C=C[125I]` [[^125I]-IVFRU], which cellular uptake [4] is on record?
A: selective uptake

Q: With `O=c1[nH]c(=O)n([C@H]2C[C@H](O)[C@@H](CO)O2)cc1C=C[125I]` [[^125I]-VDU] as the molecule, how does the cellular uptake [4] read?
A: selective uptake

Q: With `O=c1[nH]c(=O)n(C2OC(CO)C(O)C2F)cc1/C=C/[131I]` (stereo not shown) [[^131I]-IVFRU, [^131I]-(E)-5-(2-iodovinyl)-2′-fluoro-2′-deoxyuridine] as the molecule, how does the “activity in region of the shrinking tumor remnant (scintigram)” value ([5]; following 4 days of ganciclovir treatment) read?
A: relatively devoid of activity

Q: And the “uptake into tumor (scintigram)” value ([5]; prior to ganciclovir treatment)?
A: selective uptake

Q: What about the tumor/blood ratios ([6]; all time points) of the same molecule?
A: much lower

Q: And the tumor radioactivity [6]?
A: significantly less

Q: And the peak tumor/blood ratio ([7]; KBALB-STK tumors, 8 hours post injection, tail vein)?
A: approximately 3

Q: What about the tumor uptake ([7]; tumors expressing HSV-1 TK) of the same molecule?
A: Preferential tumor uptake

Q: Which “substrate for HSV-1 TK” value [8] does the source give for `O=c1[nH]c(=O)n([C@@H]2O[C@H](CO)[C@@H](O)[C@H]2F)cc1/C=C/[123I]` [^123I-IVFRU] here?
A: substrate

Q: Which results are given for `Nc1nc(O)c2ncn(COC(CO)CO)c2n1` [ganciclovir]?
A: tumor response ([9]; after 7 days of treatment, all treated animals): completely regressed; average tumor size ([9]; after four days, tumors approximately 10 mm at start): less than 5 mm
